# Source: patent publication US20120226031A1, “PALMARUMYCIN BASED INHIBITORS OF THIOREDOXIN AND METHODS OF USING SAME” (ARIZONA BOARD OF REGENTS, ACTING ON BEHALF OF THE …, priority 2005, published 2012)
# Read-outs that look alike come from different tables or passages of the source.
# Experiments:
# [1] = Aqueous solubility; format: physicochemical
# [2] = Toxicity in female scid mice; format: in vivo, mouse
# [3] = system: MCF-7 human breast cancer cells; test: MCF-7 breast cancer cell growth inhibition; format: cell-based; conditions: Homo sapiens, MCF7
# Experimental: MCF-7 human breast cancer cells were grown in medium containing 1 μM selenium (Se) for 7 days which increased cellular thioredoxin reductase activity by about 5 fold as previously reported.
# [4] = system: HIF-1α; test: Tumor HIF-1α immunohistochemistry in MCF-7 xenografts; format: in vivo, mouse; conditions: five daily doses of 25 mg/kg, 24 hours after last dose
# Experimental: FIG. 5. Inhibition of tumor HIF-1α, VEGF and thioredoxin reductase by repeated administration of PX-916. Female scid mice were implanted 1d previously with a 90-d 17β-estradiol slow release pellet were inoculated s.c. with 10^7 MCF-7 human breast cancer cells. When the tumors were 300 mm^3, vehicle or 25 mg/kg/d PX-916 was given i.v. for five doses. Twenty four hours later, the tumors were removed and stained by immunohistochemistry for HIF-1α and VEGF (A) or assayed for thioredoxin reductase activity (B). Columns mean of four mice, SE. P≦0.05.
# Levels of the HIF-1α transcription factor and its downstream target VEGF are increased by thioredoxin-1 expression. We examined the effect of PX-916 administration on tumor HIF-1α and VEGF levels (FIG. 5A). Twenty-four hours after the last dose of five daily doses of PX-916 of 25 mg/kg, there was a decrease in MCF-7 xenograft staining for both HIF-1α and VEGF. At the same time, levels of tumor thioredoxin reductase activity were decreased by 75% (FIG. 5B).
# [5] = biological target: T1, human thioredoxin reductase (Homo sapiens, UniProt Q16881); test: Inhibition of purified human thioredoxin reductase (TrxR/TR); format: biochemical
# T1 construct: (placenta); from tissue; host or cells: human placenta
# T1 sequence (Q16881 151-649 limits assumed): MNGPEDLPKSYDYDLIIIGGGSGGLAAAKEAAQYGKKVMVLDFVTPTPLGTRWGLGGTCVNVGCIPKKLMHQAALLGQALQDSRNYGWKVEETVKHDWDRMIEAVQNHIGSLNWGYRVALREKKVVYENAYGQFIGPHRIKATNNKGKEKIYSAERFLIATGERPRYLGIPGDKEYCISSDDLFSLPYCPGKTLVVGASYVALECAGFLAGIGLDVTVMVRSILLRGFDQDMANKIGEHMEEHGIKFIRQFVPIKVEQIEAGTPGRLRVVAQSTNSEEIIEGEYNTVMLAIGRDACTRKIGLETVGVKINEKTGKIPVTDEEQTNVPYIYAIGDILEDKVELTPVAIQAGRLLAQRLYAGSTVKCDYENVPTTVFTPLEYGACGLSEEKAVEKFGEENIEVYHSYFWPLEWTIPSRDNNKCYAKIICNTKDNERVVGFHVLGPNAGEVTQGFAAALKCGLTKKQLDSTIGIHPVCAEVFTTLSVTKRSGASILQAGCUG
# [6] = system: MCF-7 human tumor xenograft TR; test: Inhibition of tumor thioredoxin reductase in MCF-7 xenografts; format: in vivo, mouse; conditions: 25 mg/kg/d i.v. five daily doses, 24 hr after last dose
# Experimental: FIG. 3. Inhibition of cellular thioredoxin reductase by PX-916. MCF-7 human breast cancer cells grown in medium containing 1 μM Se for 7 days were treated with PX-916 and total cellular thioredoxin reductase activity measured. A. Time course of the inhibition of the thioredoxin reductase on exposure to 1 μM PX-916. […] In both cases values are the mean of 3 separate determinations and bars are S.E. P≦0.04 or **p≦0.01. C. Inhibition of MCF-7 tumor thioredoxin reductase by PX-916. MCF-7 human breast cancer xenografts were grown in female scid mice implanted with 17-β-estradiol 60 day slow-release pellets until they were ˜300 mm^3. The mice were administered a single dose of PX-916 of 25 mg/kg i.v. and tumors harvested at various times. Thioredoxin reductase activity was measured in tumor homogenates. Values are the mean of 3 mice at each time point and bars are SE. **p<0.01 compared to pretreatment value.
# FIG. 5. Inhibition of tumor HIF-1α, VEGF and thioredoxin reductase by repeated administration of PX-916. Female scid mice were implanted 1d previously with a 90-d 17β-estradiol slow release pellet were inoculated s.c. with 10^7 MCF-7 human breast cancer cells. When the tumors were 300 mm^3, vehicle or 25 mg/kg/d PX-916 was given i.v. for five doses. […]
# [7] = Stability in fresh mouse plasma at room temperature; format: in vitro ADME
# Experimental: Two metabolite peaks could be seen at 5 minutes, but were undetectable by 30 minutes.
# [8] = 25 mg/kg i.v. x5, 24 hr after last dose
# [9] = 25 mg/kg iv QD × 5, 24 hr after last dose, mean ± SE
smiles,measurement,setting,value
"NCC(=O)Oc1ccc2c3c(cccc13)OC1(C=CC(=O)c3c(O)cccc31)O2 (stereo not shown) [PX-916, O-glycyl naphthoquinone spiroketal]",apparent maximum solubility in water,[1],around 10 mg
same,improvement of aqueous solubility vs PX-960,[1],1-2 orders of magnitude
same,solubility,"[1]; 20% β-cyclodextrin, aqueous with cosolvent or surfactant or cyclodextrin, read-out: solubility with 20% β-cyclodextrin",2000 µg/mL
same,solubility,"[1]; water, read-out: water solubility",700 µg/mL
same,major toxicities observed,[2]; [8],neutropenia and thrombocytopenia
same,plasma liver enzymes,[2]; [8],no observable increase
same,weight loss,[2]; [8],no significant weight loss
same,ALT,[2]; [9],39.8 ± 12.8 U/I
same,AST,[2]; [9],166.9 ± 29.8 U/I
same,Hb,[2]; [9],14.9 ± 0.4 g/dL
same,LY,[2]; [9],0.3 ± 0.1 K/μl
same,MO,[2]; [9],005 ± 0.01 K/μl
same,NE,[2]; [9],0.9 ± 0.3 K/μl
same,PLT,[2]; [9],436 ± 142 K/μl
same,RBC,[2]; [9],8.9 ± 0.4 M/μl
same,WB,[2]; [9],1.3 ± 0.6 K/μl
same,Δbodywt,[2]; [9],-0.6 ± 0.3 g
same,tolerability,"[2]; 5 daily doses of 25 mg/kg i.v., female scid mice",tolerated
same,lethality,"[2]; single i.v. dose of 50 mg/kg, female scid mice",lethal
same,IC50,"[3]; Table 1, read-out: MCF-7 growth inhibition IC50",3100 nM
same,IC50,"[3]; Table 2, read-out: Inhibition of MCF-7 breast cancer cell growth IC50",3100 nM
same,IC50,[3]; read-out: IC50 MCF-7 cell growth,3100 nM
same,MCF-7 xenograft staining for HIF-1α,[4],decrease
same,IC50,"[5]; Table 1, read-out: TrxR inhibitory activity IC50",280 nM
same,IC50,"[5]; Table 2, read-out: Inhibition of human thioredoxin reductase IC50",280 nM
same,IC50,"[5]; Table 3, read-out: Inhibition IC50, thioredoxin reductase (placenta)",280 nM
same,mode of inhibition of thioredoxin reductase-1,[5]; in words,"NADPH and time dependent, apparently, irreversible inhibitor"
same,IC50,[5]; read-out: IC50 purified TrxR,280 nM
same,IC50,[5]; read-out: IC50 purified human TR,280 nM
same,decrease of tumor thioredoxin reductase activity,[6],75%
same,half-life,[7],< 2 min
